Tests used:
[1] = system: TNF-α–induced MAP3K1-IKKβ–mediated NF-κB transcription; test: NF-κB luciferase reporter assay in HeLa cells; assay type: cell-based; conditions: 20, 10, 5 μM, TNF-α 20 ng/mL, 6 h
Text: MAP3K1 was previously shown to phosphorylate IKKβ [12] and regulate NF-κB signaling. Therefore, we validated the ability of 51-106 to inhibit MAP3K1 by probing the phosphorylation status of the known substrate, IKKβ, using an AlphaLISA assay. The pancreatic cancer cells (MiaPaCa2) were subjected to a 30-min pretreatment with varying concentrations of 51-106, followed by TNFα stimulation to induce IKKβ phosphorylation. Following a 15-min stimulation, the levels of phospho-IKKβ and total IKKβ were quantified. […] (Figure 3A). Next, we evaluated the efficacy of 51-106 in a cell-based reporter assay utilizing a HeLa cell line that specifically responds to TNFα induced expression of a luciferase reporter gene that is under the control of an NF-κB response element.
A suspension of HeLa-NFkB-Luc cells (Cat# SL-0001; Signosis; Santa Clara, CA, USA) (2 × 10^4/well) in 80 μL media was plated in white-walled, flat, clear-bottomed, sterile, 96-well tissue culture plates (Cat# 3610; Corning). The cells were allowed to adhere overnight in a humidified 5% CO2 incubator at 37 °C. […] Post stimulation addition (6 h), fluorescence (Ex 560, Em 590) was measured on the plate reader to assess cell viability. […] Luminescence (1000 ms) was measured on the plate reader set to the kinetic mode of acquisition for 15 min. The luminescence data were normalized to the AlamarBlue values. […]

CaMKK1 = target: T1, CaMKK1 (Homo sapiens, UniProt Q8N5S9); test: KiNativ kinome profiling in PANC-1 lysate; assay type: binding; conditions: Lys2
T1 construct: endogenous in cells; host or cells: PANC-1 cell lysate
T1 sequence (Q8N5S9 whole entry): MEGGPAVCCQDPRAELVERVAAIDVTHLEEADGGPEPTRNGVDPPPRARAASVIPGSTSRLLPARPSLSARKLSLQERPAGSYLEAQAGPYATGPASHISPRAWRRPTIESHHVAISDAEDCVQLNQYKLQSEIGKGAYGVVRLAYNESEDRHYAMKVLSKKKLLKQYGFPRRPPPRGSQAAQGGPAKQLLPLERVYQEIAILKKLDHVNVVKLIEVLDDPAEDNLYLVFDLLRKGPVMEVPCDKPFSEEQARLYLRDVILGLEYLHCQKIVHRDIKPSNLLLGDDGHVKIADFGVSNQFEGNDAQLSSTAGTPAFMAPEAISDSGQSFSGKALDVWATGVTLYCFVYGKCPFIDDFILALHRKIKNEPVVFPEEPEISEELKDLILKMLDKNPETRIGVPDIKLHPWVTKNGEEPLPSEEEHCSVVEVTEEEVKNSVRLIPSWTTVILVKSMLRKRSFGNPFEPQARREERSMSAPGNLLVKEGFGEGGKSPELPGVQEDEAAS
Text: (§1) To assess target engagement and selectivity, we opted to conduct a kinome screen (KiNativ) in PANC-1 cell lysates. This chemical proteomics (chemoproteomics) methodology allows for the evaluation of small-molecule binding to protein kinases in native systems such as cell lysates. KiNativ utilizes a soluble chemical probe comprising ATP linked to biotin through an acyl-phosphate bond. The probe covalently modifies conserved lysine residues found in the ATP binding site of essentially all protein kinases (Figure 2A). To profile a kinase inhibitor, cell lysates are treated with a vehicle control or inhibitor prior to addition of the desthiobiotin ATP probe. The ATP probe occupies the ATP binding site in the kinase, which enables the conserved lysines to be biotinylated. […] The cell lysates are digested with a protease (trypsin), biotinylated peptides are affinity-enriched on streptavidin beads, and the labeled peptides are analyzed by liquid chromatography–tandem MS (Figure 2B). If an inhibitor binds to a kinase, it competes with the ATP, thus resulting in a loss of that kinase-associated peptide signal, allowing for the quantitative measurement of inhibitor binding. Unlike recombinant enzyme assays, KiNativ IC50 values are a direct measure of active site binding instead of enzymatic activity.
(§2) Kinome profiling quantified the activity of 51-106 against >300 kinases in the PANC-1 cells. The results summarized in Figure 2C are the average of duplicate control and duplicate treated samples with 5 μM of 51-106 or DMSO.
(§3) KiNativ assay with 51-106.
(§4) ATP Loop: ATP binding loop
(§5) Activation Loop: Activation loop
(§6) ATP: ATP site in non-canonical kinase (e.g. lipid kinase)
(§7) Protein Kinase Domain: Other lysine within kinase domain, possibly not in ATP binding site
(§8) Other: Labeling of residue outside of the protein kinase domain, possibly not in ATP binding site
(§9) No change. NB = No Binding (≤ 0)
(§10) >100% increase in MS signal (>2 fold increase)
(§11) Data points inhibited […] & not considered significant are left uncolored
(§12) Note: This KiNativ dataset is the result of an analysis of duplicate treated samples and control samples.
(§13) The % changes in MS signals being reported are statistically significant (Student T -test score < 0.04)

QSK = target: T2, QSK (Homo sapiens, UniProt Q9Y2K2); test: KiNativ kinome profiling in PANC-1 lysate; assay type: binding; conditions: Lys1
T2 construct: endogenous in cells; host or cells: PANC-1 cell lysate
Text: as §1, §2, §3, §4, §5, §6, §7, §8, §9, §10, §11, §12, §13

MET = target: T3, MET (Homo sapiens, UniProt P08581); test: KiNativ kinome profiling in PANC-1 lysate; assay type: binding; conditions: ATP Loop
T3 construct: endogenous in cells; host or cells: PANC-1
Text: as §1, §2, §3, §4, §5, §6, §7, §8, §9, §10, §11, §12, §13

CaMK1a = target: T4, CaMK1a (Homo sapiens, UniProt Q14012); test: KiNativ kinome profiling in PANC-1 lysate; assay type: binding; conditions: Lys1
T4 construct: endogenous in cells; host or cells: PANC-1 cell lysate
T4 sequence (Q14012 whole entry): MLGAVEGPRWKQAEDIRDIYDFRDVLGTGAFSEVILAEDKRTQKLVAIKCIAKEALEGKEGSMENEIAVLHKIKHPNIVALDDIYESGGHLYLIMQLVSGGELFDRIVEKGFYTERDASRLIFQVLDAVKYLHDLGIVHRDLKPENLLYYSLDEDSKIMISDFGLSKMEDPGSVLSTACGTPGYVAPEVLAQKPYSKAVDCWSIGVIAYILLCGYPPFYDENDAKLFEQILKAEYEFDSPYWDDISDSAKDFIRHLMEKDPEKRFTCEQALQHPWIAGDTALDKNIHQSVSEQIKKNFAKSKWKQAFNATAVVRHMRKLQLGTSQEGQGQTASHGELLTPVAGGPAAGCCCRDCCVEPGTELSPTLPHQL
Text: as §1, §2, §3, §4, §5, §6, §7, §8, §9, §10, §11, §12, §13

EGFR, EGFR-L858R = target: T5, EGFR, EGFR-L858R (Homo sapiens, UniProt P00533); test: KiNativ kinome profiling in PANC-1 lysate; assay type: binding
T5 construct: endogenous in cells; host or cells: PANC-1 lysate
T5 sequence (P00533 25-1210 L858R): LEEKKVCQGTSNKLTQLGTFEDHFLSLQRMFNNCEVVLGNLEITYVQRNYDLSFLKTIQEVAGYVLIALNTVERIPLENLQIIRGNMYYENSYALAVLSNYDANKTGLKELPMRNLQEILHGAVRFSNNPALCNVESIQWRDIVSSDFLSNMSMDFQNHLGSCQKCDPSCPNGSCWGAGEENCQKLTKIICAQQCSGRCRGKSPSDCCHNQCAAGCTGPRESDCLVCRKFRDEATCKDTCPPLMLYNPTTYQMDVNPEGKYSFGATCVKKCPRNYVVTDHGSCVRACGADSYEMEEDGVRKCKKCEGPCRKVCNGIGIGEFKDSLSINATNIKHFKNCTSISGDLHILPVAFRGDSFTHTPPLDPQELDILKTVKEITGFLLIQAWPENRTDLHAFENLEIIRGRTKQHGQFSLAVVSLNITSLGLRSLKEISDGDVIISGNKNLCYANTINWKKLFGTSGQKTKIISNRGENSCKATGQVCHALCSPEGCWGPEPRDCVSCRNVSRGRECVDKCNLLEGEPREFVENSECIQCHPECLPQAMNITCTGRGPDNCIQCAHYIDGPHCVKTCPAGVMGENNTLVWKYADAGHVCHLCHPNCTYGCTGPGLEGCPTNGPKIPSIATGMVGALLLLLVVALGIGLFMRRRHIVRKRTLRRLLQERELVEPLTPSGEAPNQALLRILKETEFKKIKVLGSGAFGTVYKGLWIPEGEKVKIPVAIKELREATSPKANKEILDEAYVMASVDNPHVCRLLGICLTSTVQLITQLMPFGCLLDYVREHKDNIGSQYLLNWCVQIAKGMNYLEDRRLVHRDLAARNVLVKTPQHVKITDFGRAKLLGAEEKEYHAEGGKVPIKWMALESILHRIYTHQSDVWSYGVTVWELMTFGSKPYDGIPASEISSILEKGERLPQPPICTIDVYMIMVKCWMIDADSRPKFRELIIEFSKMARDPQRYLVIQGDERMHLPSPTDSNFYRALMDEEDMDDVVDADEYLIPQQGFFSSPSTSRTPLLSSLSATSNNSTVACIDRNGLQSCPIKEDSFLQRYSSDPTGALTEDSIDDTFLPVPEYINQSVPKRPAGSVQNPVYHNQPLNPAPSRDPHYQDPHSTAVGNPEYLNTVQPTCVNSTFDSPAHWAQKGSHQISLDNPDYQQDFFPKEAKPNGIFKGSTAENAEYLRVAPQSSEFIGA
Text: as §1, §2, §3, §4, §5, §6, §7, §8, §9, §10, §11, §12, §13

TNK1 = target: T6, TNK1 (Homo sapiens, UniProt Q13470); test: KiNativ kinome profiling in PANC-1 lysate; assay type: binding; conditions: Lys1
T6 construct: endogenous in cells; host or cells: PANC-1 cell lysate
T6 sequence (Q13470 whole entry): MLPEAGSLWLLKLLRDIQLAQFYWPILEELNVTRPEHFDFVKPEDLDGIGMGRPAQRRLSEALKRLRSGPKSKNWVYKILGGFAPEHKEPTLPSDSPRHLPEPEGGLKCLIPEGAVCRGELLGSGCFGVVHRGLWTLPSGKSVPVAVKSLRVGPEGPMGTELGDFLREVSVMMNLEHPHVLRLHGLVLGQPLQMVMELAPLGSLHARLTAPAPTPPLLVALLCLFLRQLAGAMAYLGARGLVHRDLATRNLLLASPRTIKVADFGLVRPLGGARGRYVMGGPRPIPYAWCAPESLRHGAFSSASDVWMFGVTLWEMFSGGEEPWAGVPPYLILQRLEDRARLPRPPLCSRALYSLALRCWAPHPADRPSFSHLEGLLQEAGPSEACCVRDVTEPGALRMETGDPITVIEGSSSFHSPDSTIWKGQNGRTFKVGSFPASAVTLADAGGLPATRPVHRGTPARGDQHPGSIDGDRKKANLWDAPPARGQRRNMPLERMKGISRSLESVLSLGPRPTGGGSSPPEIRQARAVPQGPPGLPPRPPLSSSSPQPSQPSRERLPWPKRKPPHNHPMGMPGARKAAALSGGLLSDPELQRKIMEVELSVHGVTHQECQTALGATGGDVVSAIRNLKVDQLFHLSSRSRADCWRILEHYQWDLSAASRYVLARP
Text: as §1, §2, §3, §4, §5, §6, §7, §8, §9, §10, §11, §12, §13

NLK = target: T7, NLK (Homo sapiens, UniProt Q9UBE8); test: KiNativ kinome profiling in PANC-1 lysate; assay type: binding; conditions: Lys2
T7 construct: endogenous in cells; host or cells: PANC-1 cell lysate
T7 sequence (Q9UBE8 whole entry): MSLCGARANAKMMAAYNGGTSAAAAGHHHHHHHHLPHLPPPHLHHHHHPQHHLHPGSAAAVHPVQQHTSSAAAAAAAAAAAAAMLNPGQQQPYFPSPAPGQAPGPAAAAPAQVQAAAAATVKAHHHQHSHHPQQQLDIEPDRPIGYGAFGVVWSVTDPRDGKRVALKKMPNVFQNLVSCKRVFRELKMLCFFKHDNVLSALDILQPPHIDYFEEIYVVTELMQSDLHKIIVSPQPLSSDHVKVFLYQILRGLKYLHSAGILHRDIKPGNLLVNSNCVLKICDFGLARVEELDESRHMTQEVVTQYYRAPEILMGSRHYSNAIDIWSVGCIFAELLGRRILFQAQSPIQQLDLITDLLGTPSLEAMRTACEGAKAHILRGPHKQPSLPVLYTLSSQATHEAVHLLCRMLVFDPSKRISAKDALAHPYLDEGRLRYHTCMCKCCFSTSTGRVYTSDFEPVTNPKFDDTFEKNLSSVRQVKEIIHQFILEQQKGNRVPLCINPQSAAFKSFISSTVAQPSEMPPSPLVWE
Text: as §1, §2, §3, §4, §5, §6, §7, §8, §9, §10, §11, §12, §13

MST1, MST2 = test: KiNativ kinome profiling in PANC-1 lysate; assay type: binding; conditions: 5 µM
Text: as §1, §2, §3, §4, §5, §6, §7, §8, §9, §10, §11, §12, §13

DGKH = target: T8, DGKH (Homo sapiens, UniProt Q86XP1); test: KiNativ kinome profiling in PANC-1 lysate; assay type: binding; conditions: ATP
T8 construct: endogenous in cells; host or cells: PANC-1 lysate
T8 sequence (Q86XP1 whole entry): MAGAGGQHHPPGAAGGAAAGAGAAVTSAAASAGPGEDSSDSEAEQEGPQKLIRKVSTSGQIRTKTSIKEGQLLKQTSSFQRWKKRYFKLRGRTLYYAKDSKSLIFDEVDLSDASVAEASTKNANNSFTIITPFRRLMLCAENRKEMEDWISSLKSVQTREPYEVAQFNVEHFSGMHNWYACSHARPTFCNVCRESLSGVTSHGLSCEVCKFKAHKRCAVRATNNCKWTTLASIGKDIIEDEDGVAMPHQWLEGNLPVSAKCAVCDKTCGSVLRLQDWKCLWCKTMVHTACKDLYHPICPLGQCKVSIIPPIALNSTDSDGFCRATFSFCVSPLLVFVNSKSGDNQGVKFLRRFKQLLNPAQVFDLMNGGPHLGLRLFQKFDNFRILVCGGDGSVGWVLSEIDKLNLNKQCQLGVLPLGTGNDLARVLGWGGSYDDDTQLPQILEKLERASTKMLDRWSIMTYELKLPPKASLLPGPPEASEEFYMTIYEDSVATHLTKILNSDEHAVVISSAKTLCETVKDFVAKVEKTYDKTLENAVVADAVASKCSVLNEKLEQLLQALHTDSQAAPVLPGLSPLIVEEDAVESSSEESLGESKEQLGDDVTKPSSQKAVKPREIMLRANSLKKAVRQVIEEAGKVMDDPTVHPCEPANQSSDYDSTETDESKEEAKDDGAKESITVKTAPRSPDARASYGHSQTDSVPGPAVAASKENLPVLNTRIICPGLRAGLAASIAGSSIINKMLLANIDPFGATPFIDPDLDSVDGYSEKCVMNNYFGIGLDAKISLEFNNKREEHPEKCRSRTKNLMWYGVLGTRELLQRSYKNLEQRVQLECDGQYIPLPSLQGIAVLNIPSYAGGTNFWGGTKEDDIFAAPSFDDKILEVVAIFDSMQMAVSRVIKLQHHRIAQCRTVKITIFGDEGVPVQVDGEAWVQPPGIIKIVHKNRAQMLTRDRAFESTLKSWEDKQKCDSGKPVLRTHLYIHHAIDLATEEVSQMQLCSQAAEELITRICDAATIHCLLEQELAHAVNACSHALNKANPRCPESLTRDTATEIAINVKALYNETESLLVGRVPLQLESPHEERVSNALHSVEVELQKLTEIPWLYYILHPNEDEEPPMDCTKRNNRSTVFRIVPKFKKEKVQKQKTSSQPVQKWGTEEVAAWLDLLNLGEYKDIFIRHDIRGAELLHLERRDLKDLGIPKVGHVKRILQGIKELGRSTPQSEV
Text: as §1, §2, §3, §4, §5, §6, §7, §8, §9, §10, §11, §12, §13

CLK2 = target: T9, CLK2 (Homo sapiens, UniProt P49760); test: KiNativ kinome profiling in PANC-1 lysate; assay type: binding; conditions: Lys2
T9 construct: endogenous in cells; host or cells: PANC-1 cell lysate
Text: as §1, §2, §3, §4, §5, §6, §7, §8, §9, §10, §11, §12, §13

LYN = target: T10, LYN (Homo sapiens, UniProt P07948); test: KiNativ kinome profiling in PANC-1 lysate; assay type: binding
T10 construct: endogenous in cells; host or cells: PANC-1 cell lysate
T10 sequence (P07948 whole entry): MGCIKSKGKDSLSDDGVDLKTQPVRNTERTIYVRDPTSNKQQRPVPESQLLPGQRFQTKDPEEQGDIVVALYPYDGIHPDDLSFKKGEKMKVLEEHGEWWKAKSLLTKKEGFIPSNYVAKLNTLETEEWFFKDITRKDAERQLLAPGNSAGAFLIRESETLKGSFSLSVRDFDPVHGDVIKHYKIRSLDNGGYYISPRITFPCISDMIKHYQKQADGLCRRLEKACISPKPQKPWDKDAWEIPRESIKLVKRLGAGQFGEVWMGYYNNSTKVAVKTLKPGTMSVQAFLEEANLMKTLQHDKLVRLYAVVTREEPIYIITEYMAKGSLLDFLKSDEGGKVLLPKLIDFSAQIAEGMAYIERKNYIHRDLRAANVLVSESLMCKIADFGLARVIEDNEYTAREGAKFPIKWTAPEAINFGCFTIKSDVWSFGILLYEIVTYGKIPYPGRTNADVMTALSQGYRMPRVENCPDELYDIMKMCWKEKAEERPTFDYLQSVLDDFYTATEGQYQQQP
Text: as §1, §2, §3, §4, §5, §6, §7, §8, §9, §10, §11, §12, §13

TBK1 = target: T11, TBK1 (Homo sapiens, UniProt Q9UHD2); test: KiNativ kinome profiling in PANC-1 lysate; assay type: binding; conditions: Lys1
T11 construct: endogenous in cells; host or cells: PANC-1 cell lysate
Text: as §1, §2, §3, §4, §5, §6, §7, §8, §9, §10, §11, §12, §13

DLK = target: T12, DLK (Homo sapiens, UniProt Q12852); test: KiNativ kinome profiling in PANC-1 lysate; assay type: binding; conditions: Lys2
T12 construct: endogenous in cells; host or cells: PANC-1 lysate
Text: as §1, §2, §3, §4, §5, §6, §7, §8, §9, §10, §11, §12, §13

Cn1cc(-c2cnc3ccc(NC(=O)Nc4ccc(F)c(C(F)(F)F)c4)cc3n2)cn1 [51-106, 1-(4-Fluoro-3-(trifluoromethyl)phenyl)-3-(3-(1-methyl-1H-pyrazol-4-yl)quinoxalin-6-yl)urea] was tested, and the “TNF-α–induced NF-κB transcription (luciferase reporter)” value [1] was “dose-dependent inhibition”, the inhibition at 5 µM (CaMKK1) was ≤ 0% and the inhibition at 5 µM (QSK) was ≤ 0%. The inhibition at 5 µM (MET) was 8.3%, the inhibition at 5 µM (CaMK1a) was ≤ 0% and the inhibition at 5 µM (EGFR, EGFR-L858R; ATP Loop, LLGAEEKEYHAEGGKVPIK) was ≤ 0%. It also gave an inhibition at 5 µM (EGFR, EGFR-L858R; Lys1, IPVAIKELR) of 5.5%, an inhibition at 5 µM (TNK1) of 1.9% and an inhibition at 5 µM (NLK) of 5.9%. For the same molecule, the “% Inhibition” value (MST1, MST2; ATP Loop, LADFGVAGQLTDTMAKR) was 2.7%, the “% Inhibition” value (MST1, MST2; Lys2, DIKAGNILLNTEGHAK) was “NB (NB = No Binding (≤ 0))” and the inhibition at 5 µM (DGKH) was ≤ 0%. The inhibition at 5 µM (CLK2) was ≤ 0%, the inhibition at 5 µM (LYN; ATP Loop, EGAKFPIKWTAPEAINFGCFTIK) was ≤ 0% and the inhibition at 5 µM (LYN; Lys1, VAVKTLKPGTMSVQAFLEEANLMK) was 1.8%. The inhibition at 5 µM (TBK1) was 5.7% and the inhibition at 5 µM (DLK) was 5.9%.

— paper PMC12073402, “A Selective MAP3K1 Inhibitor Facilitates Discovery of NPM1 as a Member of the Network” (Molecules, 2025)
